Experimental data taken from patent US6395732B1, “Pyrimidin-aminomethyl-pyridine derivatives, their preparation and their use in the control of helicobacter bacteria” (BYK Gulden Lomberg Chemische Fabrik GmbH, priority 1998, dated 2002).

What was measured:
Helicobacter pylori = test: Activity against Helicobacter pylori, agar method of Iwahi et al. (MIC 50); type: cell-based; conditions: Helicobacter pylori, 96 h; Columbia agar (Oxoid), growth period of 4 days; approximate values; read-out: Appr. MIC 50
Text: The compounds of the formula I were investigated with respect to their activity against Helicobacter pylori following the method described by Tomoyuki Iwahi et al. (Antimicrobial Agents and Chemotherapy, 1991, 490-496) using Columbia agar (Oxoid) and a growth period of 4 days.

melting point | MIC50 (Helicobacter pylori) | SMILES
143 to 146 °C | ≤ 0.1 µg/mL | Cc1c(OCCCSCCn2c([N+](=O)[O-])cnc2C)ccnc1CNc1ncncc1Cl [Compound 56, (5-Chloro-pyrimidin-4-yl)-(3-methyl-4-{3-[2-(2-methyl-5-nitro-imidazol-1-yl)-ethylsulfanyl]-propoxy}-pyridin-2-ylmethyl)-amine]
160 to 163 °C | ≤ 0.1 µg/mL | Cc1nc(C)c(Cl)c(NCc2nccc(SCCOCCn3c([N+](=O)[O-])cnc3C)c2C)n1 [Compound 57, (5-Chloro-2,6-dimethyl-pyrimidin-4-yl)-(3-methyl-4-{2-[2-(2-methyl-5-nitro-imidazol-1-yl)-ethoxy]-ethylsulfanyl}-pyridin-2-ylmethyl)-amine]

The remaining lines, values behind:

SMILES | melting point | MIC50 (Helicobacter pylori)
Cc1c(OCCSCc2ccco2)ccnc1CNc1ncncc1Cl [Compound 58, (5-Chloro-pyrimidin-4-yl)-{4-[2-(furan-2-ylmethylsulfanyl)-ethoxy]-3-methyl-pyridin-2-ylmethyl}-amine] | 129 to 130 °C | ≤ 0.1 µg/mL
Cc1c(SCc2ccco2)ccnc1CNc1ncncc1Cl [Compound 59, (5-Chloro-pyrimidin-4-yl)-[4-(furan-2-ylmethylsulfanyl)-3-methyl-pyridin-2-ylmethyl]-amine] | 169 to 170 °C | ≤ 0.1 µg/mL
Cc1nc(C)c(Cl)c(NCc2nccc(SCc3ccco3)c2C)n1 [Compound 60, (5-Chloro-2,6-dimethyl-pyrimidin-4-yl)-[4-(furan-2-ylmethylsulfanyl)-3-methyl-pyridin-2-ylmethyl]-amine] | 159 to 160 °C | ≤ 0.1 µg/mL
